Assays:
Format in all cases: cell-based
cytosolic Histone H3 = experiment: Western blot of Histone H3 in cytosolic fractions; details: HeLa cells; compared to DMSO control treatment; FIG. 19B
Source text: Adherent cells formed whole cell lysates suspended in RIPA buffer containing phosphatase and protease inhibitors (Roche Inhibitor cocktails, Germany). Lysates were then spun to eliminate cell debris. Protein was quantified using the BCA Assay (Pierce, Rockford, Ill., USA) according to manufacturer's instructions using a plate reader. […] Results were then visualized and recorded using Luminata Crescendo Western HRP substrate (Millipore, UK) and an alpha imager.
Cells were fractionated using Buffer A (10 mM Hepes pH7.4; […] MgCl2, 10 mM NaCl, 0.1% NP-40, Protease and Phosphatase inhibitors) and Buffer C (10 mM Hepes pH7.4; […], 420 mM NaCl, 0.1% NP-40, Protease and Phosphatase inhibitors). […] The supernatant (cytoplasmic fraction) was carefully removed and stored at −80° C. until quantification using the BCA Assay (Pierce, Rockford, Ill., USA) according to manufacturer's instructions using a plate reader. […] Samples were then centrifuged at 12000 rpm for two minutes to remove debris, and supernatant (nuclear fraction) stored at −80° C. until quantification as described above.

[1] = system: cytosolic DNA in HeLa cells; experiment: PicoGreen fluorescent staining of double-stranded DNA, confocal microscopy; details: IC50 doses, FIG. 19C
Source text: We probed cytosolic fractions of DDRD positive cells MDA-436-EV and +BRCA1, and HCC1937-EV and +BRCA1 cells for the presence of Histone H3, and found Histone H3 protein expression was increased in the repair deficient lines (EV) (FIG. 19A, top panel of blots). […] PicoGreen fluorescent staining was used to detect double-stranded DNA (ds-DNA). […] This increase in cytosolic DNA was however not observed in response to treatment with Paclitaxel (HeLa+Paclitaxel IC50) (FIG. 19C).

cGAS bound to Histone H3 = experiment: Co-immunoprecipitation of cGAS with Histone H3 in cytosolic fraction; details: HeLa cells, not observed in DMSO treated control, FIG. 18B
Procedure: Cells were fractionated using Buffer A (10 mM Hepes pH7.4; […] MgCl2, 10 mM NaCl, 0.1% NP-40, Protease and Phosphatase inhibitors) and Buffer C (10 mM Hepes pH7.4; […], 420 mM NaCl, 0.1% NP-40, Protease and Phosphatase inhibitors). Cells were cultured at ˜70% confluency. Cells were then removed in PBS using a cell scraper and transferred to an Eppendorf. Following centrifugation at 1000 rpm at 4° C. for 5 minutes, cell pellets were resuspended in 350 μl Buffer A. Cells were lysed on ice for twenty minutes, following which samples were centrifuged at 12000 rpm for 2 minutes. Supernatants were removed, and spun a further two times at 12000 rpm for 2 minutes. The supernatant (cytoplasmic fraction) was carefully removed and stored at −80° C. until quantification using the BCA Assay (Pierce, Rockford, Ill., USA) according to manufacturer's instructions using a plate reader. The remaining pellet was washed ×1 in Buffer A, then centrifuged at 12000 rpm for 2 minutes. […] Samples were then centrifuged at 12000 rpm for two minutes to remove debris, and supernatant (nuclear fraction) stored at −80° C. until quantification as described above.
Cytoplasmic fractions were prepared as described above. […] Results were then visualized and recorded using Luminata Crescendo Western HRP substrate (Millipore, UK) and an alpha imager.

[2] = system: HCC1937 parental and HCC1937-BR cells; experiment: Cell viability assay (CellTitre-Glo), determination of cisplatin sensitivity; details: HCC1937 BRCA1 mutant cell-line relative to BRCA1 corrected cell-line (HCC1937-BR); FIG. 8D
Procedure: For measurement of sensitivity to cisplatin, exponentially growing cells were seeded into 96-well plates. […] Cells were incubated in the presence of drug for 96 hours following which time the viability of the cells was assessed using the Promega CellTitre-Glo luminescent cell viability assay. The sensitivity of the cells was calculated as the percentage of vehicle (DMSO) control.

SMILES | Histone H3 protein levels in cytosolic fraction (cytosolic Histone H3) | cytosolic DNA (PicoGreen, confocal microscopy) [1] | binding of cGAS to Histone H3 (co-IP) (cGAS bound to Histone H3) | sensitivity to cisplatin (cell viability) [2]
NC(=O)NO [hydroxyurea, Hydroxyurea] | increased Histone H3 protein levels | increased cytosolic DNA | cGAS was again bound to Histone H3 | –
N.N.[Cl][Pt][Cl] [cisplatin] | increased Histone H3 protein levels | increased cytosolic DNA | cGAS was again bound to Histone H3 | more sensitive

— patent US11254986B2, “Gene signature for immune therapies in cancer” (ALMAC DIAGNOSTICS LIMITED, priority 2015, dated 2022)
